# Laboratory results published in paper PMC8213057, “Targeting ALK2: An Open Science Approach to Developing Therapeutics for the Treatment of Diffuse Intrinsic Pontine Glioma” (Journal of Medicinal Chemistry, 2020).
# Where “and” joins values, the source holds several entries; their conditions need not be identical. Identical values can stand only once.
# Legend:
# [1] = system: ZAK/MLTK
# [2] = molecular target: MEK2 (Homo sapiens, UniProt P36507); conditions: 1 μM; Run 1, Run 2
# [3] = molecular target: T1, PKCepsilon (Homo sapiens, UniProt Q02156); conditions: 1 μM; Run 1, Run 2
# T1 sequence (Q02156 1-737): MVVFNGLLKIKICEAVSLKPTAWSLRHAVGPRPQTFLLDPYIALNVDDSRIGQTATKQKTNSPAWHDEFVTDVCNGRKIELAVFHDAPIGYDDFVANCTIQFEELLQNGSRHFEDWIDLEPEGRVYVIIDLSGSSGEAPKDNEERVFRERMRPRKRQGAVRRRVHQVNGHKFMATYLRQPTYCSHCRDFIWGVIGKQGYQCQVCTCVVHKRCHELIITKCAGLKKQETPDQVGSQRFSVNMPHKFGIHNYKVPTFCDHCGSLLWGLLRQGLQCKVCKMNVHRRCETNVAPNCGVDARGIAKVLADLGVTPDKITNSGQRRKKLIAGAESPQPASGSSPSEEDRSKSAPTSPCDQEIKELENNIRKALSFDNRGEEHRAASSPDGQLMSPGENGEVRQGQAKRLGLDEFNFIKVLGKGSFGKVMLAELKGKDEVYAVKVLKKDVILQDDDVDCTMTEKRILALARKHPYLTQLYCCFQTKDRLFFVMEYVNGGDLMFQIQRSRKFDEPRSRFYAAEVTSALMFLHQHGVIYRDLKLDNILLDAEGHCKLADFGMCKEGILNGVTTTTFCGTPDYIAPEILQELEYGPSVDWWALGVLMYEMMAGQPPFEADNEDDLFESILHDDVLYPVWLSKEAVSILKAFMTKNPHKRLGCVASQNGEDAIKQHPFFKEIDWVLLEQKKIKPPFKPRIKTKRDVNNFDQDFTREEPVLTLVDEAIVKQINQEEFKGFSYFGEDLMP
# [4] = molecular target: CDK4/cyclin D1 (Homo sapiens, UniProt P11802); experiment: biochemical; conditions: read-out: % enzyme activity, 1 μM; Run 1, Run 2
# Chain of CDK4/cyclin D1 (P11802 whole entry): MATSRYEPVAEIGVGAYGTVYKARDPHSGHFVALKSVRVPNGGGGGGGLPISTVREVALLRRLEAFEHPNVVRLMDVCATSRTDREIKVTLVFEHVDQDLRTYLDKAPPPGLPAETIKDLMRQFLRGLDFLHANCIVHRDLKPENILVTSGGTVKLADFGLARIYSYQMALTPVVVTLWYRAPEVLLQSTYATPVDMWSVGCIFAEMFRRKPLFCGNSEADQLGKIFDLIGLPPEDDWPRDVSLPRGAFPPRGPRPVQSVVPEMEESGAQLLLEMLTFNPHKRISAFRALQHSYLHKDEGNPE
# Chain of CDK4/cyclin D1 (P24385 whole entry partner): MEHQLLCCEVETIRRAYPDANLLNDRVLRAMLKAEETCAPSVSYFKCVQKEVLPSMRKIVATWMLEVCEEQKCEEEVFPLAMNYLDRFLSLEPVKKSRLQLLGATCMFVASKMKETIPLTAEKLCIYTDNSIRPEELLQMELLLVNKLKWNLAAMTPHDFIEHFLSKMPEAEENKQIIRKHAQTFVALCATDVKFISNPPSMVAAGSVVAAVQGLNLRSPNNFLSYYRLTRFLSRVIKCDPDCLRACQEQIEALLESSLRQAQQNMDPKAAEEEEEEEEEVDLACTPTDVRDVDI
# [5] = molecular target: T2, EPHA6 (Homo sapiens, UniProt Q9UF33); experiment: biochemical; conditions: read-out: % enzyme activity, 1 μM; Run 1, Run 2
# T2 sequence (Q9UF33 23-1036): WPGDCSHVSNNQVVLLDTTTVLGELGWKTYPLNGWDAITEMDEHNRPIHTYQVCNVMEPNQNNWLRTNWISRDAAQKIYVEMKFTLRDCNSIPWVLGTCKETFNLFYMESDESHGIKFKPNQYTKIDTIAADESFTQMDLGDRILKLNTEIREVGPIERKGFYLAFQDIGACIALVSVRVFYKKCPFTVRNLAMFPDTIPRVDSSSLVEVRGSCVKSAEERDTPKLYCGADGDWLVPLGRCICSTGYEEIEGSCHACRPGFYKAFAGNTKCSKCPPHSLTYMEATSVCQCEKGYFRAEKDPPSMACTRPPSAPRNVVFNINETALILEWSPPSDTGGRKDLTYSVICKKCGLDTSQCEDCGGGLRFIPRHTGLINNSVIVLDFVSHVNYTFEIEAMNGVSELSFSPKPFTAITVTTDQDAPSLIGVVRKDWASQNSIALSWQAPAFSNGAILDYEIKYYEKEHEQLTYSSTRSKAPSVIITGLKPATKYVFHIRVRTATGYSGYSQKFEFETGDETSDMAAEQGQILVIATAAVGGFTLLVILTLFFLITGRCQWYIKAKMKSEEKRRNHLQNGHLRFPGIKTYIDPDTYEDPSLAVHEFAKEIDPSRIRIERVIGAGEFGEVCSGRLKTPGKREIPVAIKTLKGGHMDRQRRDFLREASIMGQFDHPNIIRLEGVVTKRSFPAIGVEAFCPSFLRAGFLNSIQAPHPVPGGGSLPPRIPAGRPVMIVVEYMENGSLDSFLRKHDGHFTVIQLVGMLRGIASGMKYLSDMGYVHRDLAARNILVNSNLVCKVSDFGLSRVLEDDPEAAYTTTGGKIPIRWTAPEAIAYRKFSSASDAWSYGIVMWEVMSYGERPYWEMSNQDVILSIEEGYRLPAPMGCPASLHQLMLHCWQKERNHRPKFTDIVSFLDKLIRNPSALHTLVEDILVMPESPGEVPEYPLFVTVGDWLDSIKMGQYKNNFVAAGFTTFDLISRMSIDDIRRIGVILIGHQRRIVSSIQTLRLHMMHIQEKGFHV
# [6] = molecular target: T3, GRK3 (Homo sapiens, UniProt P35626); experiment: biochemical; conditions: read-out: % enzyme activity, 1 μM; Run 1, Run 2
# T3 sequence (P35626 1-688): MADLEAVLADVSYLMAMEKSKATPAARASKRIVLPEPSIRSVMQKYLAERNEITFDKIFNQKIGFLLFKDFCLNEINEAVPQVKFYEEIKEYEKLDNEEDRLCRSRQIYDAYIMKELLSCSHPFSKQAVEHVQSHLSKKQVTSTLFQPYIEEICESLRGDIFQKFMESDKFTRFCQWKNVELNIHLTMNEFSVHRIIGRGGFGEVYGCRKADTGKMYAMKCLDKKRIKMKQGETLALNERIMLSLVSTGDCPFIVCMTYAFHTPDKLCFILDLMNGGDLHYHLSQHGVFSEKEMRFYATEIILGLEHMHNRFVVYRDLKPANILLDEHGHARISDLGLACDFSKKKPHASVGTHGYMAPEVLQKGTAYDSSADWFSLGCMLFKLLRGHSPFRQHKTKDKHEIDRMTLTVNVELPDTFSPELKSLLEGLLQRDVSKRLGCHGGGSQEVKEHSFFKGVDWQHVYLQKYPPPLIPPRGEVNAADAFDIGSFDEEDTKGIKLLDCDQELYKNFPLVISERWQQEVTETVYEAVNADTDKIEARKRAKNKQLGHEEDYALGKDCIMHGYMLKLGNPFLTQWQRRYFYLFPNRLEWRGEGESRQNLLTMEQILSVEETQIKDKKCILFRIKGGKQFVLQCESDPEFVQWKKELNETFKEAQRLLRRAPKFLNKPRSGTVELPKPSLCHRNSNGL
# Chain of MEK2 (P36507 whole entry): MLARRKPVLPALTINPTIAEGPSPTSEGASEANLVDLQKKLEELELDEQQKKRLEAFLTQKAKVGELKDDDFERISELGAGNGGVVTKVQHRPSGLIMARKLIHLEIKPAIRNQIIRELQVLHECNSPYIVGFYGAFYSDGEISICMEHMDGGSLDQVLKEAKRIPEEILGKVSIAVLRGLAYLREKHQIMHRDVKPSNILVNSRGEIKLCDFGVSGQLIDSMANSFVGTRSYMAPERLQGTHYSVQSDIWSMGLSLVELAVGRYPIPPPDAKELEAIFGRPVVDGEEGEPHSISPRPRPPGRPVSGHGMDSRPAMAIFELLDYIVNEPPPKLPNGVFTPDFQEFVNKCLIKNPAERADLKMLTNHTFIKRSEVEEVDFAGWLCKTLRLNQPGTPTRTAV
smiles,measurement,setting,value
"COc1cc(-c2cncc(-c3ccc(N4CCN(C)CC4)cc3)c2C)cc(F)c1C(N)=O [Compound 26a, 2-Fluoro-6-methoxy-4-(4-methyl-5-(4-(4-methylpiperazin-1-yl)phenyl)pyridin-3-yl)benzamide]",% enzyme activity at 1 μM,[1],31.3% and 30.9%
same,% enzyme activity,[2],85.87%
same,% enzyme activity,[3],96.64%
same,remaining activity at 1 µM,[4],99.4%
same,remaining activity at 1 µM,[5],105%
same,remaining activity at 1 µM,[6],94.4%
"COc1cc(-c2cncc(-c3ccc(N4C[C@@H](C)N(C)[C@@H](C)C4)cc3)c2C)cc(F)c1C(N)=O [Compound 26c, 2-Fluoro-6-methoxy-4-(4-methyl-5-(4-((3R,5S)-3,4,5-trimethylpiperazin-1-yl)phenyl)pyridin-3-yl)benzamide]",% enzyme activity at 1 μM,[1],46.6%
same,% enzyme activity,[2],91.58%
same,% enzyme activity,[3],105.76%
same,remaining activity at 1 µM,[4],100%
same,remaining activity at 1 µM,[5],106%
same,remaining activity at 1 µM,[6],96.1%
